The subject of one test is Ac-PGP. Description: Loss of function of Ac-PGP by treatment with RTR in vivo. Also noted: species or system mouse.
Test [1] concerns probiotic strains RSB11, RSB12, or RSB13. Description: Culture growth of probiotic strains with herbal extracts or Vitamin D. In kind it is cell-based, Lactobacillus. To be noted: number of colonies per plate; FIG. 11.
The subject of a further test is C57BL/6 mouse pups. Description: In vivo (mouse) dysbiosis model of chronic lung disease, LPS-treated pups.

In the case of Arginine-Threonine-Arginine [RTR], in the test with Ac-PGP (in vivo, FIG. 9), the chronic lung disease result was “protective”. Also, in the test with Ac-PGP (noxious stimuli, LPS+RTR vs LPS alone, P<0.05, FIG. 9B), the RAC result was “significantly higher”. Besides, the MPO concentrations result in the test on Ac-PGP (noxious stimuli, LPS+RTR vs LPS alone, P<0.05, FIG. 9C) is recorded as “significantly lower”. Besides, in the test on Ac-PGP (noxious stimuli, LPS+RTR vs LPS alone, P<0.05, FIG. 9D), the RVH result is “significantly less severe”.

Consider “N-acetyl-Proline-Glycine-Proline [Ac-PGP]”, for which the NE concentrations result in the test on mice (BALF, normoxia and noxious stimuli, P<0.05, FIG. 8C) was “increased”. The MPO concentration result in the test on mice (ELISA, normoxia and noxious stimuli, P<0.05, FIG. 8B) is given as “increased”. Besides, the chronic lung disease result in the test with mice (gain of function, in vivo, FIG. 8) is “causes chronic lung disease”. Besides, the RAC counts entry in the test on mice (normoxia and noxious stimuli, P<0.05, FIG. 8A) was “decreased”. Also, in the test with mice (normoxia and noxious stimuli, P<0.05, FIG. 8D), the “right ventricular hypertrophy (RVH)” value was “increased”.

Vitamin D: the “culture growth of probiotic strains RSB11, RSB12, RSB13” value in test [1] is “do not have an inhibitory effect”.

As for lipopolysaccharide [LPS], the Ac-PGP levels result in the test on C57BL/6 mouse pups (BALF, by HPLC, vs controls, P<0.05, FIG. 7E) is “significantly increased”. Moreover, the “myeloperoxidase (MPO) levels” value in the test with C57BL/6 mouse pups (BALF, vs controls, P<0.05, FIG. 7C) is given as “significantly increased”. Further, in the test with C57BL/6 mouse pups (BALF, vs controls, P<0.05, FIG. 7D), the “neutrophil elastase (NE) levels” value is “significantly increased”. Further, the lung tissue structure result with C57BL/6 mouse pups (LPS-treated C57BL/6 mouse pups, FIG. 7A) is “alveolar hypoplasia and simplification”. Besides, in the test with C57BL/6 mouse pups (vs controls, P<0.05, FIG. 7B), the “radial alveolar counts (RAC)” value is listed as “significantly decreased”.

These data come from patent US20220401500A1, “BACTERIA AND HERBAL EXTRACT NUTRACEUTICAL BLENDS FOR LUNG HEALTH MAINTENANCE” (THE UAB RESEARCH FOUNDATION, priority 2021, published 2022).
